From ChEMBL document CHEMBL1201862, “PubChem BioAssay data set” (2004)
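A five-concentration, 48-hour dose response in 96-well plates underlies each endpoint, interpolated linearly between surrounding concentrations. GI50 is the concentration that inhibits growth by half.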 Active and inactive are the calls of the source. No stated cut-off is given here; in the data, active = GI50 up to about 1.1 µM and inactive = higher.

Experiments:
Assay in all cases: NCI tumour cell line growth inhibition, 48 h
SF-268 = tested on: SF-268
HCC 2998 = tested on: HCC 2998
HT-29 = tested on: HT-29
OVCAR-3 = tested on: OVCAR-3
LOX IMVI = tested on: LOX IMVI
CAKI-1 = tested on: CAKI-1
SK-OV-3 = tested on: SK-OV-3
NCI-H460 = tested on: NCI-H460
SK-MEL-2 = tested on: SK-MEL-2
COLO 205 = tested on: COLO 205
UACC-257 = tested on: UACC-257
HCT-116 = tested on: HCT-116
Malme-3M = tested on: Malme-3M
SF-295 = tested on: SF-295
786-0 = tested on: 786-0
SK-MEL-28 = tested on: SK-MEL-28
SR = tested on: SR

Measured: GI50

COc1ccccc1NC(=O)C1=C(C)NC(C)=C(C(=O)Nc2ccccc2OC)C1c1ccc(N(C)C)cc1
inactive: SF-268 24.5 µM | HCC 2998 14.5 µM | HT-29 45.4 µM | OVCAR-3 19.1 µM | LOX IMVI 15.4 µM | CAKI-1 23.2 µM | SK-OV-3 38.7 µM | NCI-H460 27.5 µM | SK-MEL-2 19.7 µM | COLO 205 31 µM | UACC-257 27.9 µM | HCT-116 25.4 µM | Malme-3M 36.1 µM | SF-295 38 µM | 786-0 33.8 µM | SK-MEL-28 22.6 µM

CCOc1ccc(/N=N/c2ccc3oc(=O)c(/C(C)=N\NC(=O)CC(=O)Nc4ccc(Cl)cc4)cc3c2)cc1
inactive: SF-268 19.6 µM | HCC 2998 16.3 µM | OVCAR-3 15.5 µM | LOX IMVI 13.2 µM | CAKI-1 > 100 µM | SK-OV-3 19.9 µM | SK-MEL-2 3.43 µM | COLO 205 30.5 µM | SR 3.47 µM | HCT-116 16.4 µM | Malme-3M 16 µM | SF-295 16.5 µM | SK-MEL-28 36.1 µM

Cc1cc(C)n(-c2nsc3ccccc23)n1
inactive: SF-268 > 100 µM | HCC 2998 > 100 µM | HT-29 > 100 µM | OVCAR-3 > 100 µM | LOX IMVI > 100 µM | NCI-H460 > 100 µM | SK-MEL-2 > 100 µM | COLO 205 > 100 µM | UACC-257 > 100 µM | SR > 100 µM | HCT-116 > 100 µM | SK-MEL-28 > 100 µM

O=C(C(O)c1cn(Cc2ccccc2)c2ccccc12)N1CCCCC1 (centres undefined)
inactive: SF-268 83.2 µM | HCC 2998 > 100 µM | HT-29 > 100 µM | OVCAR-3 50 µM | LOX IMVI > 100 µM | SK-OV-3 72.8 µM | SK-MEL-2 > 100 µM | COLO 205 > 100 µM | UACC-257 48.9 µM | SR > 100 µM | HCT-116 > 100 µM | Malme-3M > 100 µM | SF-295 76 µM | 786-0 > 100 µM | SK-MEL-28 > 10 µM

CC(=O)NNc1nc(C)c(C(=O)NNC(=O)C(=O)Nc2c(C)cccc2C(C)C)s1
inactive: SF-268 59.6 µM | HCC 2998 > 100 µM | HT-29 > 100 µM | OVCAR-3 36.9 µM | LOX IMVI 55.5 µM | SK-OV-3 > 100 µM | NCI-H460 86.3 µM | SK-MEL-2 > 100 µM | COLO 205 > 100 µM | UACC-257 64.3 µM | SR 40 µM | HCT-116 84.1 µM | Malme-3M 59.3 µM | SF-295 89.9 µM | 786-0 > 100 µM | SK-MEL-28 > 100 µM

NC(=O)N/N=C/C(/C=N/NC(N)=O)[N+](=O)[O-]
inactive: SF-268 > 100 µM | HT-29 > 100 µM | OVCAR-3 > 100 µM | LOX IMVI > 100 µM | CAKI-1 > 100 µM | SK-OV-3 > 100 µM | SK-MEL-2 > 100 µM | COLO 205 > 100 µM | UACC-257 > 100 µM | HCT-116 > 100 µM | Malme-3M > 100 µM | SF-295 > 100 µM | 786-0 > 100 µM | SK-MEL-28 > 100 µM

CC1(c2ccc[n+](Cc3ccccc3)c2)OCCO1
inactive: HCC 2998 > 100 µM | HT-29 > 100 µM | OVCAR-3 > 100 µM | LOX IMVI > 100 µM | CAKI-1 > 100 µM | SK-OV-3 > 100 µM | NCI-H460 > 100 µM | SK-MEL-2 > 100 µM | COLO 205 > 100 µM | UACC-257 > 100 µM | SR > 100 µM | HCT-116 > 100 µM | Malme-3M > 100 µM | SF-295 > 100 µM | 786-0 > 100 µM

CCOC(=O)Oc1ccc2[nH]c3c(C)cc(N)c(C)c3c2c1
inactive: SF-268 > 100 µM | HCC 2998 > 100 µM | HT-29 > 100 µM | OVCAR-3 > 100 µM | LOX IMVI > 100 µM | CAKI-1 > 100 µM | NCI-H460 > 100 µM | SK-MEL-2 > 100 µM | COLO 205 > 100 µM | UACC-257 > 100 µM | SR > 100 µM | HCT-116 > 100 µM | Malme-3M 87.7 µM | SF-295 > 100 µM | 786-0 > 100 µM | SK-MEL-28 > 100 µM

CCCN(CCCC(NC(C)=O)C(=O)NCc1ccccc1)C(=O)NCCCl (centres undefined)
inactive: SF-268 > 100 µM | HCC 2998 > 100 µM | HT-29 > 100 µM | OVCAR-3 > 100 µM | CAKI-1 > 100 µM | NCI-H460 > 100 µM | SK-MEL-2 > 100 µM | COLO 205 > 100 µM | UACC-257 > 100 µM | SR > 100 µM | HCT-116 > 100 µM | Malme-3M > 100 µM | SF-295 > 100 µM | 786-0 > 100 µM | SK-MEL-28 > 100 µM

COC(=O)C1=CO[C@@H](OC2CC(CO)C(O)C(O)C2O)[C@@H]2[C@@H](C)[C@@H](OC(=O)/C=C/c3ccccc3)[C@@H](O)[C@H]12.COC(=O)C1=CO[C@@H](OC2CC(CO)C(O)C(O)C2O)[C@@H]2[C@@H](C)[C@@H](OC(=O)c3ccccc3)[C@@H](O)[C@H]12 (some centres undefined)
inactive: SF-268 > 100 µM | HCC 2998 > 100 µM | HT-29 > 100 µM | OVCAR-3 > 100 µM | LOX IMVI > 100 µM | CAKI-1 > 100 µM | SK-OV-3 > 100 µM | COLO 205 > 100 µM | UACC-257 > 100 µM | SR 66.7 µM | HCT-116 > 100 µM | Malme-3M > 100 µM | SF-295 > 100 µM | 786-0 > 100 µM | SK-MEL-28 > 100 µM

CCCNC1=C(C(=O)OCC)C(=O)CO1
inactive: SF-268 > 100 µM | HCC 2998 > 100 µM | HT-29 > 100 µM | OVCAR-3 > 100 µM | LOX IMVI > 100 µM | CAKI-1 > 100 µM | NCI-H460 > 100 µM | SK-MEL-2 > 100 µM | UACC-257 > 100 µM | SR > 100 µM | HCT-116 > 100 µM | Malme-3M > 100 µM | SF-295 > 100 µM | 786-0 > 100 µM | SK-MEL-28 > 100 µM

O=C1NC(=S)NC(=O)C1=CC1CC1
inactive: SF-268 > 100 µM | HCC 2998 > 100 µM | HT-29 > 100 µM | LOX IMVI > 100 µM | CAKI-1 > 100 µM | SK-OV-3 > 100 µM | NCI-H460 > 100 µM | SK-MEL-2 > 100 µM | COLO 205 > 100 µM | UACC-257 > 100 µM | SR > 100 µM | HCT-116 > 100 µM | Malme-3M > 100 µM | SF-295 > 100 µM | 786-0 > 100 µM | SK-MEL-28 > 100 µM

CCOC(=O)C1=C(OC(OCC)C(C)[Se]c2ccccc2)CCC1 (centres undefined)
inactive: SF-268 13.3 µM | HCC 2998 78.3 µM | HT-29 28.1 µM | OVCAR-3 14.7 µM | LOX IMVI 7.21 µM | CAKI-1 51.1 µM | SK-OV-3 94 µM | NCI-H460 25.4 µM | SK-MEL-2 > 100 µM | COLO 205 25.1 µM | UACC-257 39.7 µM | SR 6.4 µM | HCT-116 18.9 µM | Malme-3M 28.1 µM | SF-295 19.8 µM | 786-0 12.5 µM | SK-MEL-28 22.6 µM

Cc1ccc(C(=O)C(C)N)cc1C (centres undefined)
inactive: SF-268 > 100 µM | HCC 2998 > 100 µM | HT-29 > 100 µM | OVCAR-3 > 100 µM | LOX IMVI > 100 µM | CAKI-1 > 100 µM | SK-OV-3 > 100 µM | NCI-H460 > 100 µM | SK-MEL-2 > 100 µM | COLO 205 > 100 µM | UACC-257 > 100 µM | HCT-116 > 100 µM | Malme-3M > 100 µM | SF-295 > 100 µM | 786-0 > 100 µM | SK-MEL-28 > 100 µM

CC(=O)OC1CC2C(C)(C)C(=O)C=C[C@]2(C)C2CCC3(C)C(=CC(=O)C3c3ccoc3)[C@]12C (some centres undefined)
inactive: SF-268 15.6 µM | HCC 2998 12.3 µM | HT-29 13.5 µM | OVCAR-3 11.5 µM | LOX IMVI 14.8 µM | CAKI-1 24.7 µM | SK-OV-3 20.7 µM | NCI-H460 11.4 µM | SK-MEL-2 17.9 µM | COLO 205 16.9 µM | UACC-257 17.4 µM | HCT-116 11.6 µM | Malme-3M 17.5 µM | SF-295 15.2 µM | 786-0 15.5 µM | SK-MEL-28 15.9 µM

COCC1N=C(c2cc(OC)c(OC)c(OC)c2-c2cc3c(cc2[C@H](C)O)OCO3)O[C@H]1c1ccccc1 (some centres undefined)
inactive: HCC 2998 > 100 µM | HT-29 76.2 µM | OVCAR-3 47.4 µM | LOX IMVI 63.2 µM | SK-OV-3 > 100 µM | SK-MEL-2 36.7 µM | COLO 205 30.1 µM | HCT-116 44.6 µM | SF-295 48.2 µM | 786-0 > 100 µM | SK-MEL-28 59.2 µM

C[C@]12CCC(=O)C=C1CC[C@@H]1[C@@H]2[C@@H](O)C[C@@]2(C)[C@H]1CC[C@]2(O)C(=O)COC(=O)CCC1CCCC1 [HYDROCORTISONE CYPIONATE]
inactive: SF-268 > 100 µM | HCC 2998 > 100 µM | HT-29 > 100 µM | OVCAR-3 > 100 µM | LOX IMVI > 100 µM | CAKI-1 87.5 µM | SK-OV-3 5.83 µM | NCI-H460 > 100 µM | COLO 205 > 100 µM | UACC-257 > 100 µM | SR > 100 µM | HCT-116 > 100 µM | Malme-3M > 100 µM | SF-295 > 100 µM | 786-0 > 100 µM | SK-MEL-28 > 100 µM
